Earlier results in article PMC4232468 (Nature chemical biology, 2014).

SMILES: Cc1ccc2c(=O)c3cccc(CC(=O)O)c3oc2c1C [DMXAA, 5,6-dimethylxanthenone-4-acetic acid]
- activation of mouse STING (mouse STING (mSTING)): activates mouse STING (mSTING)
- activation of human STING (human STING (hSTING)): not human STING (hSTING)
